How the values were obtained:
D2 receptor = molecular target: T1, D2 receptor (Homo sapiens, UniProt P14416); assay: CEREP screening, inhibition of control binding; details: CEREP Laboratories, read-out: percent of inhibition of the control binding for D2
T1 construct: Cerep (protocol)

[1] = system: HePG2 human liver cancer cell-line; assay: MTT cytotoxicity assay; assay type: cell-based; details: HepG2 cells, 24 h, 0.1–100 µM
Description: (§1) The HePG2 human liver cancer cell-line, (ATCC® 59195™) and the SH-SY5Y human neuroblastoma cell-line (ATCC® CRL-2266™) were used in the study. The cells were cultured in standard conditions (37 °C, 5% CO2), in EMEM (HepG2 and SH-SY5Y), supplemented with 10% fetal bovine serum (FBS) (Gibco, Thermo Fisher Scientific, Waltham, MA. USA) and antibiotics (Lonza, Köln, Germany).
(§2) The MTT assay was used to determine the cytotoxic effects of the analyzed compounds. Cells were seeded at a density of 2 × 10^4 in 96-well plates. Following overnight culture, cells were then treated with increasing concentrations of compound 18 (0.1–100 µM) and incubated for 24 h. Following cell exposure for 24 h, 10 µL MTT reagent (Sigma Aldrich) was added to each well and, after 3 h of incubation (37 °C, 5% CO2), the medium was aspirated and the formazan produced in the cells appeared as dark crystals in the bottom of the wells. Next, Crystal DMSO was added to each well. Then, the optical density (OD) of each well was determined at 570 nm on a plate-reader (Spectra iD3, Molecular Devices, San Jose, CA, USA). The number of metabolically active and living cells is directly proportional to the absorbance of the samples. The results are presented in Figure 5 as the percentage of control ± SEM. Doxorubicin was used as reference standard (cytotoxic agent).

[2] = system: SH-SY5Y human neuroblastoma cell-line; assay: MTT cytotoxicity assay; assay type: cell-based; details: SHSY-5Y cells, 24 h, 0.1–100 µM
Description: as §1, §2

CD-1 mice [3] = assay: spontaneous locomotor activity; assay type: in vivo; details: for spontaneous locomotor activity: mean ± S.E.M.
Description: The experiments were performed on male CD-1 mice (in the accredited animal facility at the Jagiellonian University Medical College, Krakow, Poland), and mice were kept in groups of ten in Makrolon type 3 cages (dimensions 26.5 × 15 × 42 cm). The animals were kept in an environmentally controlled room (ambient temperature 22 ± 2 °C; relative humidity 50–60%; 12:12 light:dark cycle, lights on at 8:00). They were allowed to acclimatize with the environment for one week before commencement of the experiments. Standard laboratory food (Ssniff M-Z) and filtered water were freely available. All the experimental procedures were approved by the I Local Ethics Commission at the Jagiellonian University in Krakow (Approval Nos.: 125/2017, 123/2015, and 158/2017).
All the experiments were conducted in the light phase between 09.00 and 14.00 h. Each experimental group consisted of 7–10 animals per treatment dose. The animals were used only once.
Locomotor activity was recorded with an Opto M3 multi-channel activity monitor (MultiDevice Software v.1.3, Columbus Instruments, Columbus, OH, USA). The CD-1 mice were individually placed in plastic cages (22 × 12 × 13 cm) immediately after drug administration, and then ambulation was counted during 1 h with data recording every 10 min. The cages were cleaned up with 70% ethanol after each mouse.
Locomotor activity was recorded according to the method described above.
All compounds were injected at a volume of 10 mL/kg. Control animals received a vehicle injection according to the same schedule.

5-HT1A receptor = molecular target: T2, 5-HT1A receptor (Homo sapiens, UniProt P08908); assay: radioligand binding assay, [3H]8-OH-DPAT; details: read-out: 5-HT1A 1 µM ± SEM (% of control specific binding)
T2 sequence (P08908 1-422): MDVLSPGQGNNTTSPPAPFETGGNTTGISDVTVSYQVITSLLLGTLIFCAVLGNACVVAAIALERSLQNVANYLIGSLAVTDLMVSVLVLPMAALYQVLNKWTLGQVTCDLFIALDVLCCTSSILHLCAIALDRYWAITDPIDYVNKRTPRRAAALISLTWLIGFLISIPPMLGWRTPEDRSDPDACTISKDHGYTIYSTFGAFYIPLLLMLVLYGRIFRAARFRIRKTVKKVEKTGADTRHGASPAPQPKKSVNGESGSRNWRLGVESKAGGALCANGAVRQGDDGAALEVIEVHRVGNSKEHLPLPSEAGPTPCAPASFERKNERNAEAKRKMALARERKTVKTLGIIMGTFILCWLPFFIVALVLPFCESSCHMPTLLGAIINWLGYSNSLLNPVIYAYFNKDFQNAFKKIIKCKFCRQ
Description: (§3) Briefly: binding experiments were conducted in 96-well microplates in a total final volume of 250 μL of appropriate buffers. Reaction mix included 50 μL solution of test compound, 50 μL of radioligand ([^3H]8-OH-DPAT for 5-HT1A, and [^3H]-LSD for 5-HT7, respectively) and 150 μL of diluted membranes (see description and Table S2 in Supporting Materials). Specific assay conditions for each receptor are described elsewhere. The radioactivity was measured in a MicroBeta2 scintillation counter (PerkinElmer, USA). Each compound was tested in the assay as duplicate samples at 1 µM final concentrations. Results were expressed as percent inhibition of specific binding.

5-HT7 receptor = 5-HT7 receptor (Homo sapiens, UniProt P34969); assay: radioligand binding assay, [3H]-LSD; details: read-out: 5-HT7 1 µM ± SEM (% of control specific binding)
5-HT7 receptor, sequence (P34969 whole entry): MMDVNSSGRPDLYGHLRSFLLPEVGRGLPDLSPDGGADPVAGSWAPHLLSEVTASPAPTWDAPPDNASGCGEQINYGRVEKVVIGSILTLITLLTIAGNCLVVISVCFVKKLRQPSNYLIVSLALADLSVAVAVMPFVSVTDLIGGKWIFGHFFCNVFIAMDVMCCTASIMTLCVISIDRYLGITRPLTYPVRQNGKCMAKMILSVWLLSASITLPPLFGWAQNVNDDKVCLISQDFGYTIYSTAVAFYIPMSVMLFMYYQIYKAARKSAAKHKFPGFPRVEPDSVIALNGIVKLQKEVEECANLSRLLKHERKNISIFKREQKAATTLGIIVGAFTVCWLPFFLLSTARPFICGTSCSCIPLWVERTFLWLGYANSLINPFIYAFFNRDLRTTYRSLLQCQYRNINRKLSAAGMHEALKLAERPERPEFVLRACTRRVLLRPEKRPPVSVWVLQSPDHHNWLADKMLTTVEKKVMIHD
Description: as §3

CD-1 mice [4] = assay: d-amphetamine-induced hyperlocomotor activity; assay type: in vivo
Description: The experiments were performed on male CD-1 mice (in the accredited animal facility at the Jagiellonian University Medical College, Krakow, Poland), and mice were kept in groups of ten in Makrolon type 3 cages (dimensions 26.5 × 15 × 42 cm). The animals were kept in an environmentally controlled room (ambient temperature 22 ± 2 °C; relative humidity 50–60%; 12:12 light:dark cycle, lights on at 8:00). They were allowed to acclimatize with the environment for one week before commencement of the experiments. Standard laboratory food (Ssniff M-Z) and filtered water were freely available. All the experimental procedures were approved by the I Local Ethics Commission at the Jagiellonian University in Krakow (Approval Nos.: 125/2017, 123/2015, and 158/2017). All the experiments were conducted in the light phase between 09.00 and 14.00 h. Each experimental group consisted of 7–10 animals per treatment dose. The animals were used only once. Locomotor activity was recorded with an Opto M3 multi-channel activity monitor (MultiDevice Software v.1.3, Columbus Instruments, Columbus, OH, USA). The CD-1 mice were individually placed in plastic cages (22 × 12 × 13 cm) immediately after drug administration, and then ambulation was counted during 1 h with data recording every 10 min. The cages were cleaned up with 70% ethanol after each mouse. […] All compounds were injected at a volume of 10 mL/kg. Control animals received a vehicle injection according to the same schedule.

5-HT2A receptor = molecular target: T3, 5-HT2A receptor (Homo sapiens, UniProt P28223); assay: CEREP screening, inhibition of control binding; details: CEREP Laboratories, read-out: percent of inhibition of the control binding for 5-HT2A
T3 construct: Cerep (protocol)
T3 sequence (P28223 whole entry): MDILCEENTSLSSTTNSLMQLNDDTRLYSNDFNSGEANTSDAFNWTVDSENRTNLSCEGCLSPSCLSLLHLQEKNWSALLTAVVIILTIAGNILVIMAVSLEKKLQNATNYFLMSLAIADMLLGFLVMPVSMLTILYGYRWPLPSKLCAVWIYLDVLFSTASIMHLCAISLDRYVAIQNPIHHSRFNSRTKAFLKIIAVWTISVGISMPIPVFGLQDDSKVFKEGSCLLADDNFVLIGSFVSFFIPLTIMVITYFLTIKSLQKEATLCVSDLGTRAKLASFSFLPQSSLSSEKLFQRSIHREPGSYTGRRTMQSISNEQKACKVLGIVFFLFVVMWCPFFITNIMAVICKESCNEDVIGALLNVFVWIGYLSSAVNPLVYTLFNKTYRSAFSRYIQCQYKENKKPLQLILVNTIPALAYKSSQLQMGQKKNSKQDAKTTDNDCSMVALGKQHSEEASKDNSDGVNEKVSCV

PDE10A = PDE10A (Homo sapiens, UniProt Q9Y233); assay: luminescence PDE inhibition assay (PDElight HTS cAMP phosphodiesterase assay kit); assay type: biochemical
PDE10A, sequence (Q9Y233 whole entry, species assumed): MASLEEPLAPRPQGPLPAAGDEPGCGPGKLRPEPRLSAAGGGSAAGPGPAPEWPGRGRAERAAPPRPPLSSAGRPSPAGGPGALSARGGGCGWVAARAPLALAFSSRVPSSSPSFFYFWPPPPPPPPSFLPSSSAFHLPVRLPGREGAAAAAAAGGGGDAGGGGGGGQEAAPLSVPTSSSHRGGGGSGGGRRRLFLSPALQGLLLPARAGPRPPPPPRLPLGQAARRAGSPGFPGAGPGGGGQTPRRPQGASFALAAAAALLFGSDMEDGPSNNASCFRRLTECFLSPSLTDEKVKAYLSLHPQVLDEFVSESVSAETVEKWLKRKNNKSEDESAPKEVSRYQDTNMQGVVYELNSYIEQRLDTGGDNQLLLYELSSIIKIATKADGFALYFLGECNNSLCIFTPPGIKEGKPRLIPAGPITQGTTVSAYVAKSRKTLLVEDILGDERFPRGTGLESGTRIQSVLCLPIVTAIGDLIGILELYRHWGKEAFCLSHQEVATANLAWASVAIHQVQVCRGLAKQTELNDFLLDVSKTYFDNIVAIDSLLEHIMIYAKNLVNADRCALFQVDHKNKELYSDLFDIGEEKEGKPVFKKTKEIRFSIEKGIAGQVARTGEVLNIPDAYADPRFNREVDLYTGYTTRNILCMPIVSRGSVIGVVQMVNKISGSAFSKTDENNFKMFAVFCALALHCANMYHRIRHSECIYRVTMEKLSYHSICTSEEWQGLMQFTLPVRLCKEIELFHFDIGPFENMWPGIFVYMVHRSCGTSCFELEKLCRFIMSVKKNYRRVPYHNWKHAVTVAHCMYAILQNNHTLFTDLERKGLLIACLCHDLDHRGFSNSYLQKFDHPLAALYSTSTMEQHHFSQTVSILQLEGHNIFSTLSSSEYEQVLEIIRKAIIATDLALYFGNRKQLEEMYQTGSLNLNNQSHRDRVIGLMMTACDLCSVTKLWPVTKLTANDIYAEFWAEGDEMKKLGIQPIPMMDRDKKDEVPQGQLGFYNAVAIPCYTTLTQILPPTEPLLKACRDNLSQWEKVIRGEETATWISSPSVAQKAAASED
Description: Test and reference compounds were dissolved in dimethyl sulfoxide (DMSO) at a concentration of 1 mM and further diluted in assay buffer in order to obtain the final concentration of compounds: 10 µM and 3 µM, respectively. All reactions were carried out at 37 °C in white, half-area 96-well plates (Perkin Elmer, Waltham, MA, USA). The inhibition of PDE 10A enzyme was measured using the PDElight HTS cAMP phosphodiesterase assay kit (Lonza) according to the manufacturer’s recommendations. 2.5 U of PDE 10A enzyme was preincubated either with DMSO (vehicle control) or compound for 20 min before incubation with the substrate, cAMP (final concentration 1.25 µM), for 1 h. Then, PDELight AMP Detection Reagent was added. After 10 min incubation, the luminescence was measured in a multifunction plate reader (POLARstar Omega, BMG Labtech, Ortenberg, Germany).

[5] = 60 mg/kg ip, 10 min of the test
[6] = 60 mg/kg ip, 20 min of the test
[7] = 60 mg/kg ip, 30 min of the test
[8] = 60 mg/kg ip, 60 min of the test

T1 sequence (P14416 whole entry): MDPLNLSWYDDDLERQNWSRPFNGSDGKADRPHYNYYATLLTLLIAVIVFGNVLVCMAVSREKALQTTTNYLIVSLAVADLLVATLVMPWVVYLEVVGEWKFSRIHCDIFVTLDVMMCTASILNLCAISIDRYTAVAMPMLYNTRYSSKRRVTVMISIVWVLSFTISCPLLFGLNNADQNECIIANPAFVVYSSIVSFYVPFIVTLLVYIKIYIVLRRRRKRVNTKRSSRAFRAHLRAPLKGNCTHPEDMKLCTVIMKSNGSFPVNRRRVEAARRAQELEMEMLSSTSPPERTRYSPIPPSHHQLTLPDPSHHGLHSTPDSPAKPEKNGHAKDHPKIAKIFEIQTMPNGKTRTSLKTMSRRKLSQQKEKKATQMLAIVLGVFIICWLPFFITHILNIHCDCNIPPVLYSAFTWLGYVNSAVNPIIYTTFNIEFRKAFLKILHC

COc1cccc2c1C(=O)N(CCCCc1nc3ccccc3[nH]1)C2=O [Compound 18, 2-[4-(1H-Benzimidazol-2-yl)butyl]-4-methoxy-1H-isoindole-1,3(2H)-dione]
inhibition at 1 µM (D2 receptor): 0% | cell viability (MTT) [1]: Decreasing cell viability (HepG2/SHSY-5Y) is observed only at higher concentrations | cell viability (MTT) [2]: Decreasing cell viability (HepG2/SHSY-5Y) is observed only at higher concentrations | effect on spontaneous locomotor activity (CD-1 mice [3]; 60 mg/kg): locomotor-suppressing effects were observed | spontaneous locomotor activity (CD-1 mice [3]; [5]): 176.2 | spontaneous locomotor activity (CD-1 mice [3]; [6]): 285.0 | spontaneous locomotor activity (CD-1 mice [3]; [7]): 659.6 | spontaneous locomotor activity (CD-1 mice [3]; [8]): 1875.4 | inhibition at 1 µM (5-HT1A receptor): 28 ± 3% | melting point: 69 to 70 °C | inhibition at 1 µM (5-HT7 receptor): 3 ± 1% | effect on AMPH-induced hyperactivity (CD-1 mice [4]; 60 mg/kg ip): decreased AMPH-induced hyperactivity, but only for the first 10 min after injection | effect on AMPH-induced hyperactivity (CD-1 mice [4]; lower doses (data not shown)): did not change the stimulating effect of AMPH | inhibition at 1 µM (5-HT2A receptor): 8.8% | inhibition at 3 µM (PDE10A; 1 h, percentage of inhibition respective to vehicle control (DMSO), 3 µM): 79% | inhibition at 10 µM (PDE10A; 1 h, percentage of inhibition respective to vehicle control (DMSO), 10 µM): 92% | IC50 (PDE10A; SEM of three independent experiments performed in duplicate): 0.886 ± 0.017 µM

COc1ccc(Cc2nccc3cc(OC)c(OC)cc23)cc1OC [Papaverine, papaverine]
spontaneous locomotor activity (CD-1 mice [3]; 40 mg/kg ip, 10 min of the test): 43.1 | spontaneous locomotor activity (CD-1 mice [3]; 40 mg/kg ip, 20 min of the test): 170.2 | spontaneous locomotor activity (CD-1 mice [3]; 40 mg/kg ip, 30 min of the test): 571.9 | spontaneous locomotor activity (CD-1 mice [3]; 40 mg/kg ip, 60 min of the test): 2260.8 | spontaneous locomotor activity (CD-1 mice [3]; [5]): 7.1 | spontaneous locomotor activity (CD-1 mice [3]; [6]): 24.6 | spontaneous locomotor activity (CD-1 mice [3]; [7]): 47.5 | spontaneous locomotor activity (CD-1 mice [3]; [8]): 200.4 | effect on spontaneous locomotor activity (CD-1 mice [3]; 40 and 60 mg/kg): locomotor-suppressing effects were observed | effect on AMPH-induced hyperactivity (CD-1 mice [4]; 40 and 60 mg/kg ip): dose-dependently antagonized this response | effect on AMPH-induced hyperactivity (CD-1 mice [4]; lower doses (data not shown)): did not change the stimulating effect of AMPH | PDE10A [%] 3 µM (PDE10A; percentage of inhibition respective to vehicle control (DMSO), 3 µM): 54% | PDE10A [%] 10 µM (PDE10A; percentage of inhibition respective to vehicle control (DMSO), 10 µM): 75%

COc1cccc2c1C(=O)c1c(O)c3c(c(O)c1C2=O)C[C@@](O)(C(=O)CO)C[C@@H]3O[C@H]1C[C@H](N)[C@H](O)[C@H](C)O1 [doxorubicin, reference compound]
cell viability (MTT) [1]: significantly decreased cell viability already at much lower concentrations | cell viability (MTT) [2]: significantly decreased cell viability already at much lower concentrations

From paper PMC7504677, “Impact of N-Alkylamino Substituents on Serotonin Receptor (5-HTR) Affinity and Phosphodiesterase 10A (PDE10A) Inhibition of Isoindole-1,3-dione Derivatives” (Molecules, 2020)
